The structures appear in SMILES notation.

The assay addresses T1, MCH receptor (Homo sapiens, UniProt Q99705).
T1 construct: expressed in transfected cells; host or cells: CHO cells
In words: MCH Receptor Binding Assay. To be noted: membranes from CHO cells expressing the MCH receptor, [125I]-MCH, SPA; read-out: Activity Class (Ki). As to the method: MCH Receptor Binding Assay:
Membranes from CHO cells expressing the MCH receptor were prepared by lysing cells with 5 mM HEPES for 15 min at 4C. Cell lysates were centrifuged ([…], 15 min) and the pellet was resuspended in 5 mM HEPES. For each 96-well plate (Microlite, Dynex Technologies), 1 mg of cell membranes were incubated with 10 mg of wheat germ agglutinin SPA beads (Amersham) for 5 min at 4 C in a volume of 10 ml of binding buffer (25 mM HEPES, 10 mM MGCl2, 10 mM NaCl, 5 mM MnCl2, 0.1% BSA). The membrane/bead mixture was centrifuged (1500×g, 3.5 min), the supernatant was aspirated, and the pellet was resuspended in 10 ml binding buffer. The centrifugation, aspiration and resuspension were then repeated. The membrane/bead mixture (100 μl) was then added to 96-well plates containing 50 μl of 500 pM [^125I]-MCH (NEN) and […] of the appropriate concentration of compound (4× the desired final concentration). Nonspecific binding was determined by including 1 μM MCH in the binding reaction. The binding reaction was incubated at room temperature for 2 h. Plates were then analyzed in a TOPCOUNT microplate scintillation counter (Packard). Data was analyzed and Ki values were determined using GraphPad Prism.

T1 sequence (Q99705 whole entry): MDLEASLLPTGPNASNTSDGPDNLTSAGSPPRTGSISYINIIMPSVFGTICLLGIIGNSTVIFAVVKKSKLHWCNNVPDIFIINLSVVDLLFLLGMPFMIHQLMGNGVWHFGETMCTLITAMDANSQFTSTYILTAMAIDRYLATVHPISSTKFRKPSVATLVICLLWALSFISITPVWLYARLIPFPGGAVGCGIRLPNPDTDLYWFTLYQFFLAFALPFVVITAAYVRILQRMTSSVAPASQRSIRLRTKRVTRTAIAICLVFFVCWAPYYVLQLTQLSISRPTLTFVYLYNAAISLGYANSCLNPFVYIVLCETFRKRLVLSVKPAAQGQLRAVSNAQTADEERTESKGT

As for `CS(=O)(=O)N1CCC(CN(c2nc3cc(F)c(Cl)cc3[nH]2)[C@@H]2CC[C@]3(c4cccc(C#N)c4)C[C@@H]3C2)CC1` [Example 16c], the Ki (usually the dissociation constant of the complex between target and ligand, obtained from inhibition or displacement) was less than 10 nM. `CN1CCN(CCCN(c2nc3cc(Cl)c(F)cc3[nH]2)[C@@H]2CC[C@]3(c4ccc(C#N)cc4)C[C@H]23)CC1` [Example 35c]: the Ki is less than 10 nM. For `CN(C)Cc1cccc([C@]23CC[C@@H](N(CCCN4CCN(C)CC4)c4nc5cc(Cl)c(Cl)cc5[nH]4)C[C@H]2C3)c1` [Example 10a] the value was less than 10 nM; for `CN1CCN(CCCN(c2nc3cc(Cl)c(F)cc3[nH]2)[C@@H]2CC[C@]3(c4cccc(C#N)c4)C[C@H]23)CC1` [Example 30b], less than 10 nM. Next, `CN(C)Cc1cccc([C@]23CC[C@@H](N(CCCN4CCN(C)CC4)c4nc5cc(F)c(F)cc5[nH]4)C[C@H]2C3)c1` [Example 10d]: greater than 100 nM; `CN1CCN(CCCN(c2nc3cc(F)c(C(F)(F)F)cc3[nH]2)[C@@H]2CC[C@]3(c4ccc(C#N)cc4)CC23)CC1` (some centres unmarked) [Example 35a]: less than 10 nM; `CN1CCN(CCCN(c2nc3cc(Cl)c(Cl)cc3[nH]2)[C@@H]2CC[C@]3(c4ccc(C#N)cc4)C[C@H]23)CC1` [Example 35b]: 10 to 30 nM. Next, `CN1CCN(CCCN(c2nc3cc(Cl)c(F)cc3[nH]2)[C@@H]2CC[C@]3(c4cccc(C#N)c4)C[C@@H]3C2)CC1` [Example 8c]: less than 10 nM; `CN1CCN(CCCN(c2nc3cc(F)c(F)cc3[nH]2)[C@@H]2CC[C@]3(c4cccc(C#N)c4)C[C@H]23)CC1` [Example 30c]: 10 to 30 nM. Consider `CN1CCN(CCCN(c2nc3cc(F)c(F)cc3[nH]2)[C@@H]2CC[C@]3(c4cccc(C=O)c4)C[C@@H]3C2)CC1` [Example 9b], for which the Ki fell in the range of 10 to 30 nM. For `CN1CCN(CCCN(c2nc3cc(Cl)c(Cl)cc3[nH]2)[C@@H]2CC[C@]3(c4cccc(C=O)c4)C[C@@H]3C2)CC1` [Example 9a] the value was 10 to 30 nM.

Turning to `CN1CCN(CCCN(c2nc3cc(F)c(F)cc3[nH]2)[C@@H]2CC[C@]3(c4cccc(CN5CCOCC5)c4)C[C@@H]3C2)CC1` [Example 10e], the Ki lay within 10 to 30 nM.

As for `CN1CCN(CCCN(c2nc3cc(Cl)c(Cl)cc3[nH]2)[C@@H]2CC[C@]3(c4cccc(C#N)c4)C[C@H]23)CC1` [Example 30a], the Ki is less than 10 nM. For `CN1CCN(CCCN(c2nc3cc(F)c(F)cc3[nH]2)[C@@H]2CC[C@]3(c4cccc(CN5CC[C@@H](O)C5)c4)CC3C2)CC1` (some centres unmarked) [Example 10f] the value was greater than 100 nM; for `CO/N=C/c1cccc([C@]23CC[C@@H](N(CCCN4CCN(C)CC4)c4nc5cc(F)c(F)cc5[nH]4)CC2C3)c1` (some centres unmarked) [Example 24], 10 to 30 nM. Next, `CN1CCN(CCCN(c2nc3cc(Cl)c(Cl)cc3[nH]2)[C@@H]2CC[C@]3(c4cccc(CN5CCOCC5)c4)C[C@@H]3C2)CC1` [Example 10b]: 10 to 30 nM; `CN1CCN(CCCN(c2nc3cc(F)c(Cl)cc3n2C)[C@@H]2CC[C@]3(c4cccc(C#N)c4)CC23)CC1` (some centres unmarked) [Example 36]: greater than 100 nM; `N#Cc1cccc([C@]23CC[C@@H](N(CC4CCNCC4)c4nc5cc(Cl)c(Cl)cc5[nH]4)CC2C3)c1` (some centres unmarked) [Example 22]: less than 10 nM.

On to `CS(=O)(=O)N1CCC(CN(c2nc3cc(F)c(F)cc3[nH]2)[C@@H]2CC[C@]3(c4cccc(C#N)c4)C[C@@H]3C2)CC1` [Example 16b], for which the Ki lay in the range of 10 to 30 nM. For `CS(=O)(=O)N1CCC(CN(c2nc3cc(Cl)c(Cl)cc3[nH]2)[C@@H]2CC[C@]3(c4cccc(C#N)c4)C[C@@H]3C2)CC1` [Example 16a] the value was less than 10 nM; for `CC(C)(C)OC(=O)N1CCC(CN(c2nc3cc(Cl)c(Cl)cc3[nH]2)[C@@H]2CC[C@]3(c4cccc(C#N)c4)CC3C2)CC1` (some centres unmarked) [Example 21], greater than 100 nM. Next, `CN1CCN(CCCN(c2nc3cc(F)c(F)cc3[nH]2)[C@@H]2CC[C@]3(c4cccc(CN5CCCC5)c4)C[C@@H]3C2)CC1` [Example 10c]: 10 to 30 nM.

On to `CN1CCN(CCCN(c2nc3cc(F)c(Cl)cc3[nH]2)[C@@H]2CC[C@]3(c4cccc(Br)c4)CC23)CC1` (some centres unmarked) [Example 30d], for which the Ki is 10 to 30 nM.

(Values after patent US7030113B2, “Aminobenzimidazoles as selective melanin concentrating hormone receptor antagonists for the treatment of obesity and related disorders” (Schering Corporation, priority 2003, dated 2006).)
